Experimental data published in patent US20230227484A1, “PYRIMIDINE COMPOUND AS AXL INHIBITOR” (NANJING CHIA TAI TIANQING PHARMACEUTICAL CO., LTD., priority 2020, published 2023).

Legend:
[1] = test system: MV-4-11 (human myeloid monocytic leukemia cell line); experiment: Proliferation inhibition activity of compounds to MV-4-11 cells (CellTiter-Glo); format: cell-based; conditions: MV4-11 cells, 72 h dosing
Protocol: MV-4-11 (human myeloid monocytic leukemia cell line, culture medium: JIMDM+10% fetal bovine serum) is purchased from Cobioer Biosciences Co., Ltd and cultured in a 5% C02 incubator at 37° C. The cells in a logarithmic growth phase are plated in a 96-well plate at cell densities of 8000 cells/well, 6000 cells/well, 2000 cells/well, 2000 cells/well and 3000 cells/well, and a blank control group is set at the same time.
A compound to be tested and the positive drug are dissolved in dimethyl sulfoxide to prepare a 10 mM stock solution, which is then stored in −80° C. refrigerator for long-time storage. After the cells are plated for 24 h, the 10 mM compound stock solution is diluted with dimethyl sulfoxide to obtain a working solution having a 200-fold concentration (the highest concentration is 200 or 2000 μM, a 3-fold gradient, a total of 10 concentrations), and 3 μL of the working solution of each concentration is added to 197 μL of complete medium, and diluted into a working solution of 3-fold concentration. 50 μL of the working solution is then taken and added to a 100 μL cell culture medium (a final concentration of dimethyl sulfoxide is 0.5%, v/v), and two complex holes are set for each concentration. After 72 h of dosing treatment, 50 μl of CellTiter-Glo® (purchased from Promega) is added to each well. Fluorescence signals are measured on Envision (PerkinElmer) according to an operating procedure of the specification. GraphPad Prism 5 software log(inhibitor) vs. response-Variable slope is used to fit a dose-response curve, so as to obtain the IC50 value of the compound to the inhibition of cell-proliferation. The calculation formulation of the inhibition rate is as follows: […]
wherein: signal value of subject: a mean fluorescence signal of cell+medium+compound group; signal value of blank group: a mean fluorescence signal of medium group (containing 0.5% DMSO); signal value of negative control group: a mean fluorescence signal of cell+medium group (containing 0.5% DMSO).

AXL kinase = molecular target: T1, AXL kinase (Homo sapiens, UniProt P30530); experiment: Inhibitory activity of compound against AXL kinase (HTRF KinEASE); format: biochemical; conditions: AXL enzyme (Carna, 08-107), ATP 15 μM; "<" means below detection limit of the test
T1 construct: purchased Carna 08-107
T1 sequence (P30530 473-894 limits assumed): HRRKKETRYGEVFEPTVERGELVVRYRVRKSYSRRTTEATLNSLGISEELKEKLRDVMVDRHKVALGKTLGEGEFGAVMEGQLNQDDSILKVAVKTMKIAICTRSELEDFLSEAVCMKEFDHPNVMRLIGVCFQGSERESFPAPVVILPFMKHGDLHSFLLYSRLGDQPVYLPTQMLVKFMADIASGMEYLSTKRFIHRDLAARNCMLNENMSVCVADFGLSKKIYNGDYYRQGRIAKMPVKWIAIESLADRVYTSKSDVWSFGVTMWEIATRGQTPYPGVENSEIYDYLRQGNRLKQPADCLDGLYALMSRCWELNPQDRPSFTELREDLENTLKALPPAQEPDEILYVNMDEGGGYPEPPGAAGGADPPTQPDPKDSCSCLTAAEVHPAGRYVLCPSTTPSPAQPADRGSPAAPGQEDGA
Procedure, shortened: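 AXL enzyme (final 0.016 ng/uL) was preincubated with compound (8 concentrations from 1 μM, ½ log steps) for 15 min at room temperature, then reacted with TK Substrate 3-biotin (final 1) and ATP (final 15 μM) for 45 min at 25° C. Phosphorylation was read by HTRF (TK antibody-cryptate, streptavidin-XL665, 1 h); IC50 from variable-slope dose-response fit.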

Row | SMILES | IC50 [1] | IC50 (AXL kinase)
1 | CP(C)(=O)c1cc(F)c(Cl)cc1Nc1nc(Nc2ccc3c(c2)CC[C@@H](N2CCCC2)CC3)ncc1Cl [Example 118, (S)-(4-chloro-2-((5-chloro-2-((7-(pyrrolidin-1-yl)-6,7,8,9-tetrahydro-5H-benzoannulen-2-yl)amino)pyrimidin-4-yl)amino)-5-fluorophenyl)dimethyl phosphine oxide] | 30.3 nM | 5.45 nM
2 | CC(C)S(=O)(=O)c1ccccc1Nc1nc(Nc2ccc3c(c2)CC[C@@H](N2CCCC2)CC3)ncc1Cl [Example 22, (S)-5-chloro-N^4-(2-(isopropylsulfo)phenyl)-N^2-(7-(pyrrolidin-1-yl)-6,7,8,9-tetrahydro-5H-benzo[7]annulen-2-yl)pyrimidine-2,4-diamine] | 6.76 nM | 0.11 nM
3 | O=S(=O)(Nc1ccccc1Nc1nc(Nc2ccc3c(c2)CC[C@@H](N2CCCC2)CC3)ncc1Cl)C1CC1 [Example 41, (S)—N-(2-((5-chloro-2-((7-(pyrrolidin-1-yl)-6,7,8,9-tetrahydro-5H-benzo[7]annulen-2-yl)amino)pyrimidin-4-yl)amino)phenyl)cyclopropanesulfonamide] | 4.28 nM | 2.08 nM
4 | CNC(=O)c1ccccc1Nc1nc(Nc2ccc3c(c2)CCN(C2CCCC2)CC3)ncc1Cl [Example 32, 2-((5-chloro-2-((3-cyclopentyl-2,3,4,5-tetrahydro-1H-benzo(d)aza-7-yl)amino)pyrimidine-4-yl)amino)-N-methylbenzamide] | 1.98 nM | 0.75 nM
5 | Clc1cnc(Nc2ccc3c(c2)CC[C@@H](N2CCCC2)CC3)nc1Nc1ccccc1-c1ncn[nH]1 [Example 25, (S)—N^4-(2-(1H-1,2,4-triazol-5-yl)phenyl)-5-chloro-N^2-(7-(pyrrolidin-1-yl)-6,7,8,9-tetrahydro-5H-benzo[7]annulen-2-yl)pyrimidine-2,4-diamine] | 3.23 nM | 0.62 nM
6 | O=S(=O)(NC1CC1)c1ccccc1Nc1nc(Nc2ccc3c(c2)CC[C@@H](N2CCCC2)CC3)ncc1Cl [Example 24, (S)-2-((5-chloro-2-((7-(pyrrolidin-1-yl)-6,7,8,9-tetrahydro-5H-benzo[7]annulen-2-yl)amino)pyrimidin-4-yl)amino)-N-cyclopropyl benzenesulfonamide] | 6.89 nM | < 0.11 nM
7 | CN(C)S(=O)(=O)c1ccccc1Nc1nc(Nc2ccc3c(c2)CC[C@@H](N2CCCC2)CC3)ncc1Cl [Example 1, (S)-2-((5-chloro-2-((7-(pyrrolidin-1-yl)-6,7,8,9-tetrahydro-5H-benzo[7]annulen-2-yl)amino)pyrimidin-4-yl)amino)-N,N-dimethyl benzenesulfonamide] | 6.83 nM | 0.33 nM
8 | CS(=O)(=O)c1ccccc1Nc1nc(Nc2ccc3c(c2)CC[C@@H](N2CCCC2)CC3)ncc1Cl [Example 23, (S)-5-chloro-N^4-(2-(methylsulfonyl)phenyl)-N^2-(7-(pyrrolidin-1-yl)-6,7,8,9-tetrahydro-5H-benzo[7]annulen-2-yl)pyrimidine-2,4-diamine] | 7.11 nM | 1.38 nM
9 | CC(C)(O)c1ccccc1Nc1nc(Nc2ccc3c(c2)CC[C@@H](N2CCCC2)CC3)ncc1Cl [Example 15, (S)-2-(2-((5-chloro-2-((7-(pyrrolidin-1-yl)-6,7,8,9-tetrahydro-5H-benzo[7]annulen-2-yl)amino)pyrimidin-4-yl)amino)phenyl)propan-2-ol] | 9.15 nM | 2.41 nM
10 | COc1c(F)ccc(Nc2nc(Nc3ccc4c(c3)CC[C@@H](N3CCCC3)CC4)ncc2Cl)c1P(C)(C)=O [Example 134, (S)-(6-((5-chloro-2-((7-(pyrrolidin-1-yl)-6,7,8,9-tetrahydro-5H-benzo[7]annulen-2-yl)amino)pyrimidin-4-yl)amino)-3-fluoro-2-methoxyphenyl)dimethyl phosphine oxide] | 3.63 nM | 0.85 nM
11 | CNC(=O)c1ccccc1Nc1nc(Nc2ccc3c(c2)CC[C@@H](N2CCCC2)CC3)ncc1Cl [Example 12, (S)-2-((5-chloro-2-((7-(pyrrolidin-1-yl)-6,7,8,9-tetrahydro-5H-benzo[7]annulen-2-yl)amino)pyrimidin-4-yl)amino)-N-methylbenzamide] | 1.44 nM | < 0.11 nM
12 | CNC(=O)c1cc(Cl)ccc1Nc1nc(Nc2ccc3c(c2)CC[C@@H](N2CCCC2)CC3)ncc1Cl [Example 36, (S)-5-chloro-2-((5-chloro-2-((7-(pyrrolidin-1-yl)-6,7,8,9-tetrahydro-5H-benzo[7]annulen-2-yl)amino)pyrimidin-4-yl)amino)-N-methylbenzamide] | 5.12 nM | 0.36 nM
13 | O=C(c1ccccc1Nc1nc(Nc2ccc3c(c2)CC[C@@H](N2CCCC2)CC3)ncc1Cl)N1CCCC1 [Example 6, (S)-(2-((5-chloro-2-((7-(pyrrolidin-1-yl)-6,7,8,9-tetrahydro-5H-benzo[7]annulen-2-yl)amino)pyrimidin-4-yl)amino)phenyl)(pyrrolidin-1-yl)methanone] | 3.38 nM | < 0.11 nM
14 | COCc1ccc(Nc2nc(Nc3ccc4c(c3)CCC(N3CC5CC3C5)CC4)ncc2Cl)c(P(C)(C)=O)c1 (single isomer, unassigned) [Example 116 Isomer 116-1, (2-((2-((7-(2-azabicyclo[2.1.1]hexan-2-yl)-6,7,8,9-tetrahydro-5H-benzo[7]annulen-2-yl)amino)-5-chloropyrimidin-4-yl)amino)-5-(methoxymethyl)phenyl)dimethyl phosphine oxide] | 10.1 nM | 4.94 nM
15 | O=C(NC1CCOC1)c1ccccc1Nc1nc(Nc2ccc3c(c2)CC[C@@H](N2CCCC2)CC3)ncc1Cl (stereo partly drawn) [Example 39] | 6.4 nM | 2.59 nM
16 | NC(=O)c1ccccc1Nc1nc(Nc2ccc3c(c2)CC[C@@H](N2CCCC2)CC3)ncc1Cl [Example 13, (S)-2-((5-chloro-2-((7-(pyrrolidin-1-yl)-6,7,8,9-tetrahydro-5H-benzo[7]annulen-2-yl)amino)pyrimidin-4-yl)amino)benzamide] | 0.64 nM | < 0.11 nM
17 | O=C1NCc2cccc(Nc3nc(Nc4ccc5c(c4)CC[C@@H](N4CCCC4)CC5)ncc3Cl)c21 [Example 29, (S)-7-((5-chloro-2-(((7-(pyrrolidin-1-yl)-6,7,8,9-tetrahydro-5H-benzo[7]annulen-2-yl)amino))pyrimidin-4-yl)amino)isoindolin-1-one] | 3.23 nM | 0.34 nM
18 | CNC(=O)c1cnccc1Nc1nc(Nc2ccc3c(c2)CC[C@@H](N2CCCC2)CC3)ncc1Cl [Example 20, (S)-4-((5-chloro-2-((7-(pyrrolidin-1-yl)-6,7,8,9-tetrahydro-5H-benzo[7]annulen-2-yl)amino)pyrimidin-4-yl)amino)-N-methylnicotinamide] | 5.96 nM | 1.93 nM
19 | CN1Cc2cccc(Nc3nc(Nc4ccc5c(c4)CCN(C4CCOCC4)CC5)ncc3Cl)c2C1=O [Example 49, 7-((5-chloro-2-((3-(tetrahydro-2H-pyran-4-yl)-2,3,4,5-tetrahydro-1H-benzo[d]aza-7-yl)amino)pyrimidin-4-yl)amino)-2-methylisoindolin-1-one] | 8.3 nM | 9.85 nM
20 | CNC(=O)c1cc(C#N)ccc1Nc1nc(Nc2ccc3c(c2)CC[C@@H](N2CCCC2)CC3)ncc1Cl [Example 34, (S)-2-((5-chloro-2-((7-(pyrrolidin-1-yl)-6,7,8,9-tetrahydro-5H-benzo[7]annulen-2-yl)amino)pyrimidin-4-yl)amino)-5-cyano-N-methylbenzamide] | 6.16 nM | 1.27 nM
21 | CNC(=O)c1cc(O)ccc1Nc1nc(Nc2ccc3c(c2)CC[C@@H](N2CCCC2)CC3)ncc1Cl [Example 45, (S)-2-((5-chloro-2-((7-(pyrrolidin-1-yl)-6,7,8,9-tetrahydro-5H-benzo[7]annulen-2-yl)amino)pyrimidin-4-yl)amino)-5-hydroxyl-N-methylbenzamide] | 3.48 nM | 0.5 nM
